Measured values published in ChEMBL document CHEMBL5096162, “A review on ferulic acid and analogs based scaffolds for the management of Alzheimer's disease” (Eur J Med Chem, 2021).

Columns and labels:
[1] = target: T1, Cholinesterase (Homo sapiens, UniProt P06276); assay: Inhibition of human BuchE preincubated for 30 mins followed by substrate addition using butyrylthiocholine iodide as substrate by Ellman's method
[2] = target: Amyloid-beta precursor protein (Homo sapiens) (UniProt P05067); assay: Inhibition of self-induced amyloid beta (1 to 40) (unknown origin) aggregation at 20 uM incubated for 48 hrs by ThT-based fluorimetric assay
Sequence of Amyloid-beta precursor protein (Homo sapiens) (P05067 whole entry): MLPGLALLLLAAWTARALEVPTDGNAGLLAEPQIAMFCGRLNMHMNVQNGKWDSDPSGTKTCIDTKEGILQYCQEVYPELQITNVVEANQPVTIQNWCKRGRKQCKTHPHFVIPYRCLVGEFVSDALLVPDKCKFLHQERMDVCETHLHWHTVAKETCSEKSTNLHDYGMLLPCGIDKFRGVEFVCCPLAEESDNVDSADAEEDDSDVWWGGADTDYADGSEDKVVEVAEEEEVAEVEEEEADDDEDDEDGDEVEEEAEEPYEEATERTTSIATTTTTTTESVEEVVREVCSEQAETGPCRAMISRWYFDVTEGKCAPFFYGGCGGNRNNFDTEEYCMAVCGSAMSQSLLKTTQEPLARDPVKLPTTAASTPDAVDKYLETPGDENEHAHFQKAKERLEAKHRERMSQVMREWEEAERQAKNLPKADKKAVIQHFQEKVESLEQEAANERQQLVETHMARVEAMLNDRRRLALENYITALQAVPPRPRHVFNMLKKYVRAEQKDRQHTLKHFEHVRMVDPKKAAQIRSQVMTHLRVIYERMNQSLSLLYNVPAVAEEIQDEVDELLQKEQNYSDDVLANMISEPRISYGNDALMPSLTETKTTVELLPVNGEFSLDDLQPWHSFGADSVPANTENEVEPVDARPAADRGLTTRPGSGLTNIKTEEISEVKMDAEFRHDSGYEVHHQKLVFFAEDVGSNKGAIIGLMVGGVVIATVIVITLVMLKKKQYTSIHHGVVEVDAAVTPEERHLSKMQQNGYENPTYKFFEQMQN

[3] = Antioxidant activity of compound assessed as trolox equivalent of AAPH radical scavenging activity preincubated for 15 mins followed by AAPH addition and measured every 1 min for 60 mins by ORAC-FL assay; assay type: functional; conditions: time 75.0 min
[4] = Antioxidant activity assessed as DPPH radical scavenging activity at 200 uM incubated for 2 hrs in dark by spectrophotometric analysis; assay type: functional
[5] = tested on: HT-22; assay: Neuroprotection against iodoacetic acid-induced ATP depletion in mouse HT-22 cells assessed as increase in cell viability at 1 uM incubated for 2 hrs in medium with compound and iodoacetic acid followed by medium change with compound and measured after 24 hrs by MTT assay; assay type: functional; conditions: time 26 hrs
[6] = target: T2, Cholinesterase (Equus caballus, UniProt P81908); assay: Inhibition of equine serum BuChE preincubated for 5 mins followed by substrate addition and measured after 5 mins using S-butyrylthiocholine iodide as substrate by Ellman's method
T2 sequence (P81908 whole entry): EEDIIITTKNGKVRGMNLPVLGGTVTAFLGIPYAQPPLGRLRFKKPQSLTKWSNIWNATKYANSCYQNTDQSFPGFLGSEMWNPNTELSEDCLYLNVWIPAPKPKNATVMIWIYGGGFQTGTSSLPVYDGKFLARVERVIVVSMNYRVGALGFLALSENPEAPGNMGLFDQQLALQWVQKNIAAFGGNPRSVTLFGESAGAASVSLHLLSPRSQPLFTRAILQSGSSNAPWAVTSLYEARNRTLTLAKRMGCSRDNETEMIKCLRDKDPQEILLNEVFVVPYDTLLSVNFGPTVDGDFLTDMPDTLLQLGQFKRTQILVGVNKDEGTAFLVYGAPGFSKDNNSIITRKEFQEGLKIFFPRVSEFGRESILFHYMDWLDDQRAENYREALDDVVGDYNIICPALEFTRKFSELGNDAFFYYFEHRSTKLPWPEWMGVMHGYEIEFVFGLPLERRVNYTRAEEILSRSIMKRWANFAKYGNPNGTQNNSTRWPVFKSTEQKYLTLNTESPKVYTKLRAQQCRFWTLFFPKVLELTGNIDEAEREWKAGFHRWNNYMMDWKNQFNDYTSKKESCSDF

[7] = Antioxidant activity assessed as trolox equivalent of ORAC radical scavenging activity by ORAC-FL assay; assay type: functional
[8] = target: Acetylcholinesterase (Electrophorus electricus) (UniProt O42275); assay: Inhibition of electric eel AChE at 1 uM by Ellman's method
Sequence of Acetylcholinesterase (Electrophorus electricus) (O42275 24-633 limits assumed): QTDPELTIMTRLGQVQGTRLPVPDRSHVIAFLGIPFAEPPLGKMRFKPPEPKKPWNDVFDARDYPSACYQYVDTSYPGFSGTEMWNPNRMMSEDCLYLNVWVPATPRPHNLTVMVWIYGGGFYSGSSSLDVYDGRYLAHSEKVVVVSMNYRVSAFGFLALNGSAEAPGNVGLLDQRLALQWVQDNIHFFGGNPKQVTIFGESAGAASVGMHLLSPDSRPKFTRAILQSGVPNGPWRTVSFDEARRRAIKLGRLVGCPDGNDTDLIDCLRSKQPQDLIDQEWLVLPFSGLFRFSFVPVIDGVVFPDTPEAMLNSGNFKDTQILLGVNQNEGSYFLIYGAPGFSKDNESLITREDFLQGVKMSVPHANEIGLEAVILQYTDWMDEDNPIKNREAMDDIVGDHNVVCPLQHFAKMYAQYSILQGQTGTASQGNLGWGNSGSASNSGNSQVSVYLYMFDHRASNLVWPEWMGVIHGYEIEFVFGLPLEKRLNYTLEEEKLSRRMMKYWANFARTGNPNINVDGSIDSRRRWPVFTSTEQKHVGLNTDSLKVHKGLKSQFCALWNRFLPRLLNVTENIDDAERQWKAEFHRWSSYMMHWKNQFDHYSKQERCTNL

[9] = target: Cholinesterase (Equus caballus) (UniProt P81908); assay: Inhibition of equine BuChE at 1 uM by Ellman's method
Sequence of Cholinesterase (Equus caballus) (P81908 whole entry): as the sequence (P81908 whole entry) above

[10] = target: T3, Acetylcholinesterase (Electrophorus electricus, UniProt O42275); assay: Inhibition of electric eel AChE preincubated for 5 mins followed by substrate addition using acetylthiocholine iodide as substrate by Ellman's method
T3 sequence (O42275 whole entry): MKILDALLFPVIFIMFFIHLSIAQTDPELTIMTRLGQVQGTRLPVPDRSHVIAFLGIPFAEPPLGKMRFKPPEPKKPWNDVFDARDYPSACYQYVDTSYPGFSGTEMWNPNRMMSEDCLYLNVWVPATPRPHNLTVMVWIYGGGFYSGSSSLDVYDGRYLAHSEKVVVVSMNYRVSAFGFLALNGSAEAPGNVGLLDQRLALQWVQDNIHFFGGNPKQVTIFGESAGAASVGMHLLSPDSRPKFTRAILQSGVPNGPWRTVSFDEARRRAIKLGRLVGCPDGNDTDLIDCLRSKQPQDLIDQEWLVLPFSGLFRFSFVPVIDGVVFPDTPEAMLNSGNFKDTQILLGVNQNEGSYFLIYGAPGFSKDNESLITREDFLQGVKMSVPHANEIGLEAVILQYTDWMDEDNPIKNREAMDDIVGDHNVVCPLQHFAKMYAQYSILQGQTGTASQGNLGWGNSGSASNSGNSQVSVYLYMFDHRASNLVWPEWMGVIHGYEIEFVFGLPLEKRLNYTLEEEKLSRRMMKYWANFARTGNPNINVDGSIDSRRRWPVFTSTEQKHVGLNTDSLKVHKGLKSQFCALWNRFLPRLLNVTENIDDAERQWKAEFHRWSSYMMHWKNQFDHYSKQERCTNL

[11] = Antioxidant activity assessed as DPPH radical scavenging activity incubated for 30 mins by UV-Vis spectrophotometric analysis; assay type: functional
[12] = Antioxidant activity assessed as trolox equivalent of ABTS radical cation scavenging activity measured after 6 mins by UV spectrophotometeric analysis; assay type: functional
[13] = target: T3, Acetylcholinesterase; assay: Inhibition of electric eel AChE incubated for 15 mins using acetylthiocholine as substrate by Ellman's method
[14] = target: Amyloid-beta precursor protein (Homo sapiens) (UniProt P05067); assay: Inhibition of self-induced amyloid beta (1 to 42) (unknown origin) aggregation assessed as disaggregation at 25 uM incubated for 24 hrs in dark by ThT-based fluorimetric assay
[15] = target: T4, Amine oxidase [flavin-containing] B (Homo sapiens, UniProt P27338); assay: Inhibition of recombinant human MAO-B assessed as measuring amount of 4-hydroxyquinoline using kynuramine as substrate incubated for 30 mins by fluorescence spectrophotometry
T4 sequence (P27338 whole entry): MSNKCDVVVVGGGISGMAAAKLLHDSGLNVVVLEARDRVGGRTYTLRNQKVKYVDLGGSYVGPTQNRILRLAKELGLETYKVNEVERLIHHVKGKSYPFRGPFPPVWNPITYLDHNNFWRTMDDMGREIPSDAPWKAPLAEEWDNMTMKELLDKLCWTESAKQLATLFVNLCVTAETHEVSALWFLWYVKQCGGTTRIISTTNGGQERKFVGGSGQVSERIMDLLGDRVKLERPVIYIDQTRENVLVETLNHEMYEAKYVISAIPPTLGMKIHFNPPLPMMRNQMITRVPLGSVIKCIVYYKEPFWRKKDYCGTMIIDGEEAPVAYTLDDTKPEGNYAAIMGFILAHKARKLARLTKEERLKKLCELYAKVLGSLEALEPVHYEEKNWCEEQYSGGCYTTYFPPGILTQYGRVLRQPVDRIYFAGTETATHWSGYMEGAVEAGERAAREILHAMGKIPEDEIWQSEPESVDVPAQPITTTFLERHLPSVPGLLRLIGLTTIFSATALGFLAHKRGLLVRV

[16] = target: Amyloid-beta precursor protein (Homo sapiens) (UniProt P05067); assay: Inhibition of self-induced amyloid beta (1 to 42) (unknown origin) aggregation at 25 uM incubated for 24 hrs in dark by ThT-based fluorimetric assay
[17] = target: T2, Cholinesterase; assay: Inhibition of equine BuChE incubated for 15 mins using butyrylthiocholine as substrate by Ellman's method
[18] = target: T5, Amine oxidase [flavin-containing] A (Homo sapiens, UniProt P21397); assay: Inhibition of recombinant human MAO-A assessed as measuring amount of 4-hydroxyquinoline using kynuramine as substrate incubated for 30 mins by fluorescence spectrophotometry
T5 sequence (P21397 whole entry): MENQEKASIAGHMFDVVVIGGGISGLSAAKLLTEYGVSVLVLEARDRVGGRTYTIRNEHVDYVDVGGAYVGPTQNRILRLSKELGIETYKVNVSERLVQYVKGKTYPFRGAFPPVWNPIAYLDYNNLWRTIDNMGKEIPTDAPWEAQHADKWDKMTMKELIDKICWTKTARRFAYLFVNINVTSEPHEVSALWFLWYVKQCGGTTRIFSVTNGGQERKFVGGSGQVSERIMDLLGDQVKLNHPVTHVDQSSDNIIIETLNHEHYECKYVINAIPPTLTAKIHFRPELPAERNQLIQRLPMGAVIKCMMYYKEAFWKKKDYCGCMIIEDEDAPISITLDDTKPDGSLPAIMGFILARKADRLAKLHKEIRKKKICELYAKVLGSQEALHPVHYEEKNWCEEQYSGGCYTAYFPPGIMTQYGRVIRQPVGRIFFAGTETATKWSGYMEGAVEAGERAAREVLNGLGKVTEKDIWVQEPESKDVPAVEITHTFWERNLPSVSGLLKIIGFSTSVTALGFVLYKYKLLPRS

[19] = Antioxidant activity assessed as DPPH radical scavenging activity at 1 mM incubated for 30 mins by microplate reader method; assay type: functional
[20] = target: T3, Acetylcholinesterase; assay: Inhibition of electric eel AChE preincubated for 15 mins followed by substrate addition using acetylthiocholine iodide as substrate by Ellman's method
[21] = target: Amyloid-beta precursor protein (Homo sapiens) (UniProt P05067); assay: Inhibition of amyloid beta (1 to 42) (unknown origin) self aggregation assessed as reduction in fluorescence intensity at 80 uM incubated for 24 hrs by ThT-based fluorimetric assay
[22] = tested on: SH-SY5Y; assay: Neuroprotective activity against amyloid beta-induced cytotoxicity in human SH-SY5Y cells assessed as cell viability at 10 to 80 uM by MTT assay; assay type: functional; conditions: dose 10-80 µM
[23] = target: Beta-secretase 1 (Homo sapiens, UniProt P56817); assay: Inhibition of human BACE-1 by FRET-based fluorometric assay
Sequence of Beta-secretase 1 (P56817 whole entry): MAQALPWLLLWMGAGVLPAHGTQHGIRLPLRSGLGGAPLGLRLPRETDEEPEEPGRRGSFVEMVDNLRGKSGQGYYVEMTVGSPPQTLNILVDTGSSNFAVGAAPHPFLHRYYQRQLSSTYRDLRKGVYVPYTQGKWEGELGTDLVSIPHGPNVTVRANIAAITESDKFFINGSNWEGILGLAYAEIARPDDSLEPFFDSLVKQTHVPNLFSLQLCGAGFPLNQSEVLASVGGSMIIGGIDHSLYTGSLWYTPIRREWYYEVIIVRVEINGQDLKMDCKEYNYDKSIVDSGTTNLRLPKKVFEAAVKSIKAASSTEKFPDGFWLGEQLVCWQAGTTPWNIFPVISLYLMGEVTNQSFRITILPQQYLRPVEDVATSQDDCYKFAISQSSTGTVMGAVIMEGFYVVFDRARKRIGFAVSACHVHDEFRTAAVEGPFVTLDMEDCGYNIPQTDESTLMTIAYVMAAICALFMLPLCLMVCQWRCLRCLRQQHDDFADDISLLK

[24] = target: T1, Cholinesterase; assay: Inhibition of human BuchE using butyrylthiocholine iodide as substrate by Ellman colorimetric assay
[25] = target: T6, Acetylcholinesterase (Homo sapiens, UniProt P22303); assay: Inhibition of human AchE using acetylthiocholine iodide as substrate by Ellman colorimetric assay
T6 sequence (P22303 whole entry): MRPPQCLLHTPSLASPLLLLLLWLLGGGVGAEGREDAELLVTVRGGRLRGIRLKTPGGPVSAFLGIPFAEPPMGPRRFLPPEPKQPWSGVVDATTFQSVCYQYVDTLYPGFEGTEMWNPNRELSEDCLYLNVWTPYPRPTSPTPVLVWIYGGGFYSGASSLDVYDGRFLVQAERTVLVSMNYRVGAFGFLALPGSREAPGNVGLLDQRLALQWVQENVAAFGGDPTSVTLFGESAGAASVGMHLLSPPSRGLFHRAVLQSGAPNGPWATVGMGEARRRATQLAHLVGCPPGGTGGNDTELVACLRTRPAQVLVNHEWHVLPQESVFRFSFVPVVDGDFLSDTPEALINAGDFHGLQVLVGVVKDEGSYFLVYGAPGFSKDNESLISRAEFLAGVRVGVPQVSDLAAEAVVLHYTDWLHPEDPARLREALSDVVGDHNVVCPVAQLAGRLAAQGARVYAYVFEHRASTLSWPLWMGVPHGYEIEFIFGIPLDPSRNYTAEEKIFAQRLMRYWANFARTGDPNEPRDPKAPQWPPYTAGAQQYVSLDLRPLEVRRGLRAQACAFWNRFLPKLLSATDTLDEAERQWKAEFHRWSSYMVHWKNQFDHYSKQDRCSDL

[26] = tested on: HepG2; assay: Cytotoxicity against human HepG2 cells assessed reduction in cell viability at 1000 uM by MTT assay; assay type: toxicity, cell-based; conditions: hepg2, 1000 µM
[27] = tested on: SH-SY5Y; assay: Neuroprotective activity against amyloid beta (1 to 42)-induced cytotoxicity in human SH-SY5Y cells assessed as increase in cell viability at 10 uM incubated for 24 hrs by MTT assay; assay type: functional
[28] = tested on: HepG2; assay: Cytotoxicity against human HepG2 cells assessed reduction in cell viability at 1 uM by MTT assay; assay type: toxicity, cell-based; conditions: hepg2, 1 µM
[29] = Antioxidant activity of compound assessed as trolox equivalent of AAPH radical scavenging activity preincubated for 15 mins followed by AAPH addition and measured for 60 mins by ORAC-FL assay; assay type: functional; conditions: time 75.0 min
[30] = target: Amyloid-beta precursor protein (Homo sapiens) (UniProt P05067); assay: Inhibition of amyloid beta (1 to 42) (unknown origin) self aggregation assessed as reduction in fluorescence intensity at 50 uM incubated for 24 hrs by ThT-based fluorimetric assay
[31] = target: T6, Acetylcholinesterase; assay: Inhibition of human AchE preincubated for 20 mins followed by substrate addition using acetylthiocholine iodide as substrate by Ellman's method
[32] = target: Amyloid-beta precursor protein (Homo sapiens) (UniProt P05067); assay: Inhibition of amyloid beta (1 to 42) (unknown origin) self aggregation assessed as reduction in fluorescence intensity at 20 uM incubated for 24 hrs by ThT-based fluorimetric assay

T1 sequence (P06276 whole entry): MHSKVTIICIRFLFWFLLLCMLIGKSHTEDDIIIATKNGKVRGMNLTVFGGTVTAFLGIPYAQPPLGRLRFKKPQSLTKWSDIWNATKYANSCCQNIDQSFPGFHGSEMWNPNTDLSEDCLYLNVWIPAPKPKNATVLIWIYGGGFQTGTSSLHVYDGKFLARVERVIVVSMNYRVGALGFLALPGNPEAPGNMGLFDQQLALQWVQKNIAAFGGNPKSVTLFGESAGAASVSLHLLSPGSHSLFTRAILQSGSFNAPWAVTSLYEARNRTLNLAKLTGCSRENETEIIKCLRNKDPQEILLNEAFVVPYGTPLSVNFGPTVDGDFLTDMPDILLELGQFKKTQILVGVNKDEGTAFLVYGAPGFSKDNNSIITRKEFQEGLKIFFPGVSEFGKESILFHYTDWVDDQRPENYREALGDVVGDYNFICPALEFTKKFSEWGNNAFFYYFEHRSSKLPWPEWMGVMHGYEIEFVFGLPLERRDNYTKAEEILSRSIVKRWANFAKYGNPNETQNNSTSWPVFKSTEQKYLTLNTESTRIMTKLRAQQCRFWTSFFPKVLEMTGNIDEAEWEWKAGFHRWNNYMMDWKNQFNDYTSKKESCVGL

In the case of `CCCCNC(=O)O[C@@H]1C[C@H]2O[C@@H](OC(=O)CCCCC3CCSS3)C[C@H]2O1` (stereo partly drawn), the IC50 [1] is reported as 170 nM.
`O=C(NCc1ccccc1)C(c1cnc2ccccc2c1)N(Cc1ccccc1)C(=O)/C=C/c1ccc(O)c(O)c1` (stereo not drawn) showed an inhibition [2] of 66.4%, an Activity [3] of 5.48 equiv and an Activity [4] of 89.1%.
Work on `O=C(/C=C/c1ccccc1)Oc1ccc2c(c1)O[C@H](c1ccc(O)c(O)c1)[C@@H](O)C2=O` yielded an Activity [5] of 40%.
`O=C(/C=C/c1ccc(O)c(O)c1)NCCCCCC[P+](c1ccccc1)(c1ccccc1)c1ccccc1` gave an IC50 [6] of 150 nM.
For `CCNC(=O)O[C@@H]1C[C@H]2O[C@@H](OC(=O)CCCCC3CCSS3)C[C@H]2O1` (stereo partly drawn), the Activity [7] was 0.163 equiv.
With `COc1cc(/C=C/C(=O)N(CCC2CCN(Cc3ccccc3)CC2)CC(=O)Nc2c(C)cccc2Cl)ccc1O` the inhibition [8] was 24.8%, the inhibition [9] was 57.3% and the Activity [7] was 6.9 equiv.
With `COc1cc(/C=C/C(=O)NCCC2CCN(Cc3ccccc3)CC2)cc(OC)c1O` the IC50 [10] was 390 nM, the IC50 [11] was 24900 nM and the Activity [12] was 1.78 equiv.
With `O=C1c2c(O)cc(O)cc2O[C@H](c2ccc(O)c(O)c2)[C@H]1O` [(+)-TAXIFOLIN] the Activity [5] was 10%.
Compound `COc1cc(/C=C/C(=O)N2CCc3ccccc3C2)ccc1OCCCCN(CNCc1ccccc1)CNCc1ccccc1` has an IC50 [13] of 12100 nM, an inhibition [14] of 43.8% and an IC50 [15] of 8600 nM. The inhibition [16] was 59.3%, the IC50 [17] was 8930 nM and the IC50 [18] was 6300 nM. For the same compound, the Activity [7] was 0.52 equiv.
Work on `COc1ccc(/C=C/C(=O)NCCC2CCN(Cc3ccccc3)CC2)cc1O` yielded an IC50 [11] of 764000 nM.
`COc1ccc(/C=C/C(O)NCCCNc2c3c(nc4ccccc24)CCCC3)cc1OC` (stereo not drawn) gave an Activity [19] of 16.8%, an IC50 [20] of 90 nM and an inhibition [21] of 56.5%.
For `COc1cc(/C=C/c2nnc(-c3ccc(OC(F)(F)F)cc3)o2)ccc1O`, the Activity [22] was 65.11%, the IC50 [23] was 210 nM and the IC50 [24] was 210 nM. The IC50 [25] was 92 nM.
With `COc1cc(/C=C/C(=O)NCCC2CCN(Cc3ccccc3)CC2)ccc1O` the IC50 [11] was 34100 nM and the Activity [12] was 1.39 equiv.
In the case of `COc1ccc2nc3c(c(NCCCCCCCCN(CC(=O)Nc4ccc5ccccc5c4)C(=O)/C=C/c4ccc(O)c(OC)c4)c2c1)CCCC3`, the Activity [26] is reported as 59.4%, the Activity [27] is reported as 95.1% and the Activity [28] is reported as 98.8%. The Activity [29] was 4.29 equiv, the inhibition [30] was 65.6% and the IC50 [31] was 22.2 nM.
`COC(=O)/C=C/c1ccc(OCCCCCN2CCN(CC(=O)Nc3c4c(nc5ccccc35)CCCC4)CC2)c(OC)c1` gave an inhibition [32] of 37.2%.
